# Measurements published in US20030143729A1 (Synaptic Pharmaceutical Corporation, priority 1992, published 2003).
# Where two headings read alike, the source gives them in different places.
# Key:
# animals = conditions: in vivo; cited from earlier work
# hBGT-1 = target: T1, hBGT-1 (Homo sapiens, UniProt P48065); conditions: read-out: IC50 for inhibition of [3H]GABA uptake, human BGT-1; stable cell line; 50 nM [3H]GABA
# T1 sequence (P48065 1-614): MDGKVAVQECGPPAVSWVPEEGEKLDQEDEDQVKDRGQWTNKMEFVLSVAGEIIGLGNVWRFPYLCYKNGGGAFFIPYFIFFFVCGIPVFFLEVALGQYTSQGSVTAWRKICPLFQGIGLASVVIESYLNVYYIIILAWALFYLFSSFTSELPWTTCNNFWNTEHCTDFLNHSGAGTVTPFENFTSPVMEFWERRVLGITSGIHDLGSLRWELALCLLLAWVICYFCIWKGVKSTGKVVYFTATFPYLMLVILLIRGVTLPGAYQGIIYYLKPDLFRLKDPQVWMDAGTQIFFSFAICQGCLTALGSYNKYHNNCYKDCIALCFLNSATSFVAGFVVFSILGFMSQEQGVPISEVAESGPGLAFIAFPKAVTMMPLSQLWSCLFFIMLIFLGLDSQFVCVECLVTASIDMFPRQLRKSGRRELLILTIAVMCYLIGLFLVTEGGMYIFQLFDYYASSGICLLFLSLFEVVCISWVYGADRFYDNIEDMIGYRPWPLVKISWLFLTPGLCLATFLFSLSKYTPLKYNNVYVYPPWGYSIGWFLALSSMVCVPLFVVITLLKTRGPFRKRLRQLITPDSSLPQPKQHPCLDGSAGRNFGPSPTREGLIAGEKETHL
# Description: (§1) Cells were grown under standard conditions (37° C., 5% CO2) in Dulbecco's modified Eagles's medium (GIBCO, Grand Island, N.Y.).
# (§2) Cells grown in 24-well plates were washed 3× with HEPES-buffered saline (HBS, in mM: NaCl, 150; HEPES, 20; CaCl2, 1; glucose, 10; KCl, 5; MgCl2, 1; pH 7.4) and allowed to equilibrate on a 37° C. slide warmer. After 10 minutes the medium was removed and unlabeled drugs in HBS were added (450 μl/well). […] Plates were incubated at 37° C. for 10 minutes, then washed rapidly 3× with ice-cold HBS, using a 24-position plate washer (Brandel, Gaithersburg, Mass.; model PW-12). Cells were solubilized with 0.05% sodium deoxycholate/0.1N NaOH (0.25 ml/well), an aliquot neutralized with 1N HCl, and radioactivity was determined by scintillation counting. Protein was quantified in an aliquot of the solubilized cells using a BIO-RAD protein assay kit, according to the manufacturer's directions.
# (§3) Lipophilic inhibitors were dissolved in DMSO.
# (§4) Data Analysis: Competition curves were conducted in duplicate, using 10 concentrations of unlabeled drug.
# human GAT-1 [1] = target: T2, human GAT-1 (Homo sapiens, UniProt P30531); conditions: read-out: IC50 for inhibition of [3H]GABA uptake, human GAT-1
# Description: as §1, §2, §3, §4
# human GAT-1 [2] = target: T2, human GAT-1; experiment: cell-based
# Description: as §1, §2, §3, §4
# T2 sequence (P30531 whole entry): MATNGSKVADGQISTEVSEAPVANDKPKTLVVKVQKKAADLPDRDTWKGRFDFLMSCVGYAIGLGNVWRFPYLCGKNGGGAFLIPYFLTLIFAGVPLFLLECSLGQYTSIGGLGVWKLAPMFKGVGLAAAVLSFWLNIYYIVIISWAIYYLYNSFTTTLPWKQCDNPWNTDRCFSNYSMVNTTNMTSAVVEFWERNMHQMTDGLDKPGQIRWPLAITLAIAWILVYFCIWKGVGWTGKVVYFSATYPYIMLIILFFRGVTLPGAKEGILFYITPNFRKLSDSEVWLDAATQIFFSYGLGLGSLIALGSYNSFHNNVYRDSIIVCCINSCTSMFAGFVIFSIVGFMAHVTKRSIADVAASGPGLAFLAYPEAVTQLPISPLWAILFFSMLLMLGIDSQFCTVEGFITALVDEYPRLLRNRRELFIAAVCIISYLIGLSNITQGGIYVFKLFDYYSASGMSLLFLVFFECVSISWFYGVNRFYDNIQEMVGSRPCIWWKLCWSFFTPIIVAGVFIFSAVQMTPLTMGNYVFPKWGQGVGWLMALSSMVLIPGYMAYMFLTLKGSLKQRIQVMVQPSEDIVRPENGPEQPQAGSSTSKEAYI
SMILES,anticonvulsive activity in animals (animals),IC50 (hBGT-1) [µM],IC50 (human GAT-1 [1]) [µM],IC50 (human GAT-1 [2]) [µM]
O=C(O)C1=CCCN(CCON=C(c2ccccc2)c2ccccc2)C1 [NNC-711],anticonvulsive activity,622 ± 265,0.04 ± 0.01,–
NCCC(=O)O [β-alanine],–,–,–,5690 ± 1890
